In patent publication US11767286B2, “Phenylpropionate compound, preparation method for same, and applications thereof” (SUZHOU PHARMAVAN CO., LTD, priority 2017, dated 2023):
Read-outs that look alike come from different tables or passages of the source.

Columns and labels:
[1] = tested on: platelet aggregation induced with a platelet activating factor; assay: Maximum platelet aggregation rate of rabbits, induced with PAF; assay type: cell-based; details: rabbit plasma, 4 mg/kg as printed; for inhibition at 4 mg/kg: Oryctolagus cuniculus, Platelet, n=3, read-out: Inhibiton rate on Aggregation; for Maximum Aggregation Rate: n=3
Protocol: (§1) Effects on maximum platelet aggregation rate of rabbits: 3 Rabbits were anesthetized, and blood was collected from the heart to obtain 14 parts of plasma for each rabbit (1 ml per part of plasma). 7 Parts were induced with ADP to allow platelet aggregation, and 7 parts were induced with a platelet activating factor. After the induction, a solvent, positive control drug aspirin, and 5 samples to be trialed were separately added to the plasma, and maximum platelet aggregation rate was detected with a platelet aggregation meter. The trials were repeated 3 times, and an average was taken. Detected indicator: maximum platelet aggregation rate.
(§2) Table 4 lists results of effects of phenylpropionate compounds (4 mg/kg) on platelet aggregation rate of rabbits (n=3).

[2] = tested on: rats with acute cerebral ischemia-reperfusion; assay: Blood viscosity of rats with acute cerebral ischemia-reperfusion (blood viscometer); assay type: in vivo, SD rats; parameters: unit not given here; details: 4 mg/kg iv 2 h after reperfusion; blood 4 h after administration; n=5
Protocol: (§3) Trial method: Effects on inflammatory factors and blood viscosity of rats with acute cerebral ischemia-reperfusion: 70 Male SD rats underwent an MACO surgery by a suture method, and after the surgery, alive rats were randomly grouped (into 7 groups, the number of successful animals in each group was guaranteed to be 6 to 8). Blood perfusion was recovered 2 h after MCAO, and corresponding trial medicaments were intravenously injected 2 h after blood reperfusion. 4 hours after the administration, blood was collected and the rats were sacrificed to take out brain tissues. The brain tissues and part of the blood were centrifuged to collect serum which was detected for inflammatory factors, and part of the blood was detected for blood viscosity by using a blood viscometer. Detected indicators: cerebral infarction area; inflammatory factors IL-1β and TNF-α; and blood viscosity.
Table 2 lists results of effects of phenylpropionate compounds (4 mg/kg) on blood viscosity of rats (n=5).

[3] = tested on: platelet aggregation induced with ADP; assay: Maximum platelet aggregation rate of rabbits, induced with ADP; assay type: cell-based; details: rabbit plasma, 4 mg/kg as printed, n=3; for inhibition at 4 mg/kg: Oryctolagus cuniculus, Platelet
Protocol: as §1, §2

[4] = tested on: TNF-α; assay: Inflammatory factor TNF-α in blood and brain tissues of rats with acute cerebral ischemia-reperfusion; assay type: in vivo, SD rats; details: 4 mg/kg iv 2 h after reperfusion; 4 h after administration; n=5
Protocol: as §3
(§4) Table 3 lists results of effects of phenylpropionate compounds (4 mg/kg) on inflammatory factors in blood and brain tissues of rats (n=5).

[5] = tested on: rats with acute cerebral ischemia-reperfusion; assay: Cerebral infarction area of rats with acute cerebral ischemia-reperfusion (MCAO, suture method); assay type: in vivo, SD rats; parameters: Cerebral Infarction Area: unit not given here; details: n=5; for Cerebral Infarction Area: 4 mg/kg iv 2 h after reperfusion (2 h MCAO), sampled 4 h after administration; for inhibition in vivo at 4 mg/kg: Rattus norvegicus, 4 h, 4 mg/kg iv 2 h after reperfusion, vs solvent control, read-out: Percentage of Cerebral Infarction Area Reduction
Protocol: as §3
Table 1 lists results of effects of phenylpropionate compounds (4 mg/kg) on cerebral infarction area of rats with acute cerebral ischemia (n=5).

[6] = tested on: IL-1β; assay: Inflammatory factor IL-1β in blood and brain tissues of rats with acute cerebral ischemia-reperfusion; assay type: in vivo, SD rats; details: 4 mg/kg iv 2 h after reperfusion; 4 h after administration; n=5
Protocol: as §3, §4

[7] = Distribution in brain: plasma and intracerebral concentrations after intravenous injection; assay type: in vivo; details: both sexes, rat, rats, 4 mg/kg iv; for Kp at 10 min / Kp at 60 min / Kp at 180 min: brain/plasma, read-out: Brain/Blood Concentration Ratio
Protocol: In this example, Compounds A to E, D-bornyl ferulate, and D-tanshinol borneol ester were measured for distribution in brain. Structures of D-bornyl ferulate (Patent Application No.: 201510243181.5) and D-tanshinol borneol ester compounds are as follows:
Method for testing distribution in brain: 42 rats with a weight range of 200±20 g were taken. The rats were randomly divided into 7 groups, with 6 rats per group, half male and half female. Rats were fasted with free access to water for 12 h and then intravenously injected with 4 mg/kg of a compound. Rats in the 3 groups were sacrificed through femoral artery bleeding and collected for blood 10 min, 60 min, 180 min after administration, respectively. Brains were taken out, 0.2 g was weighted, and 1 mL of pure water was added for homogenizing. The blood samples and brain homogenate samples were stored at −20° C.
Distribution of Compounds A to E, and D-bornyl ferulate and D-tanshinol borneol ester compounds in brain: Data on concentrations of Compounds A to E, D-bornyl ferulate, and D-tanshinol borneol ester in plasma and intracerebral in rats intravenously injected with 4 mg/kg of Compounds A to E, D-bornyl ferulate, and D-tanshinol borneol ester are listed in Table 9.

[8] = tested on: SD rat model of focal ischemia-reperfusion; assay: Dose-effect relationship in SD rat model of focal ischemia-reperfusion (MCAO); assay type: in vivo, SD rats; details: 4.0 mg/kg, given 2 h after reperfusion, mean ± standard error; for Score of Symptoms of Neurological Deficits: 48 h, modified Bederson 5-point scale; for Infarction area: evaluated after 48 h
Protocol: In this example, phenylpropionate compounds were studied for dose-effect relationship, with D-bornyl ferulate (administrated at 4.0 mg/kg) and D-tanshinol borneol ester (administrated at 4.0 mg/kg) as positive control drugs. Structures of D-bornyl ferulate (Patent Application No.: 201510243181.5) and D-tanshinol borneol ester compounds are as follows:
Trial method: A cerebral ischemia reperfusion model of middle cerebral artery occlusion (MCAO) was prepared by an internal carotid artery suture method. An animal was anesthetized with 10% chloral hydrate (3.6 mL/kg) and then fixed on an operating table in a supine position. Its skin was disinfected, and a midline incision was made on the neck. The right common carotid artery, external carotid artery, and internal carotid artery were separated, the vagus nerve was gently striped off, and the external carotid artery was ligated and cut. The common carotid artery was clamped at the proximal end. […] The nylon thread was advanced through the bifurcation of the common carotid artery into the internal carotid artery, and then was slowly inserted until there was slight resistance (about 20 mm from the bifurcation) to block all the blood supply to the middle cerebral artery. 2 h after cerebral ischemia, the nylon thread was gently pulled out to restore blood supply for reperfusion, and the neck skin was sutured and disinfected. The animal was put back in a cage and raised. During the modeling operation, animals with abnormal conditions due to anesthesia, surgery, etc. were excluded, and successfully modeled animals were randomly grouped. Schemes were set according to different trial doses, and drug treatment was given 2 h after cerebral ischemia-reperfusion. Death conditions were recorded every day after the surgery, and indicators were evaluated after 48 h. In the whole trial process, general conditions were observed, mainly including: death, coma, breathing, urine and feces traits, hair colors, mental status, vomiting and vomitus, bleeding, convulsion, spasm, etc. Abnormal animals due to unexpected factors were excluded. Finally, unblinding was conducted by a person who made blind trials.
Evaluated indicator: (1) Evaluation of symptoms of neurological deficits: The symptoms of neurological deficits were evaluated by using a modified Bederson 5-point scale. A single-blind method was used for evaluating the symptoms of neurological deficits in rats with brain trauma. That is, a trial designer marked animals in accordance with groups, and an experimenter who scored the symptoms of neurological deficits had no knowledge of how the animals were grouped. After scoring was completed, the scorer submitted scoring results for various marks to the designer, and the designer performed unblinding to obtain scores of animals in each trial group. (2) Measurement of cerebral infarction area: A method reported in the literature was used. An animal was anesthetized with 10% chloral hydrate and decapitated to collect brain. The olfactory bulb, cerebellum and lower brain stem were removed. Blood stains on the surface of the brain were rinsed with normal saline, the residual water stains on the surface were absorbed, and the brain was placed at −80° C. for 7 min. After the brain was taken out, a coronal section was immediately made at downwards and vertical to the sight intersection plane, and brain slices were made every 2 mm backwards. Brain slices were placed in a TTC (20 g/L) dye solution prepared with 0.9% normal saline, and incubated at 37° C. for 90 min. Normal brain tissues were stained deep red, and ischemic brain tissues were pale-white. After rinsed with normal saline, the brain sections were quickly arranged in order from front to back, the residual water stains on the surface were absorbed to dryness, and pictures were taken. Image analysis software was used for statistics on the pictures. […]

[9] = brain, read-out: Mean Intracerebral Concentration
[10] = plasma, read-out: Mean Plasma Concentration

Row | SMILES | inhibition at 4 mg/kg [1] [%] | Maximum Aggregation Rate [1] [%] | Blood viscosity, High Shear [2] | Blood viscosity, Low Shear [2] | inhibition at 4 mg/kg [3] [%] | Maximum Aggregation Rate [3] [%] | TNF-α [4] [ng/L] | Cerebral Infarction Area [5] | inhibition in vivo at 4 mg/kg [5] [%] | IL-1β [6] [ng/L] | Kp at 10 min [7] | Kp at 60 min [7] | Kp at 180 min [7] | concentration at 10 min [7, 9] [ng/g] | concentration at 60 min [7, 9] [ng/g] | concentration at 180 min [7, 9] [ng/g] | concentration at 10 min [7, 10] [ng/mL] | concentration at 60 min [7, 10] [ng/mL] | concentration at 180 min [7, 10] [ng/mL] | Score of Symptoms of Neurological Deficits [8] | other results
1 | CC(=O)Oc1ccccc1C(=O)O [Aspirin, aspirin, reference compound] | 40.8 | 41.3 ± 1.53 | 2.64 ± 0.199 | 12.2 ± 0.742 | 54.1 | 14.8 ± 3.99 | 647 ± 45.2 | 22.7 ± 4.05 | 38 | 62.9 ± 11.5 |  |  |  |  |  |  |  |  |  |  | 
2 | COc1cc(CCC(=O)O[C@H]2C[C@H]3CC[C@]2(C)C3(C)C)cc(O)c1O [Compound B] | 55 | 32.1 ± 9.7 | 2.73 ± 0.122 | 13.9 ± 0.134 | 46.8 | 17.5 ± 2.84 | 645 ± 42.3 | 18.7 ± 7.16 | 49 | 63.4 ± 5.6 | 1.6 | 4.5 | 1.8 | 2490 ± 437 | 1270 ± 234 | 247 ± 87.5 | 1530 ± 581 | 285 ± 105 | 136 ± 60.4 |  | 
3 | COc1cc(CCC(=O)O[C@H]2C[C@H]3CC[C@]2(C)C3(C)C)c(Br)cc1O [Compound D] | 34.6 | 46.7 ± 9.8 | 2.63 ± 0.312 | 13.3 ± 0.354 | 55.3 | 14.7 ± 7.42 | 562 ± 34.2 | 19.4 ± 4.61 | 47.1 | 53.4 ± 8.9 | 1.6 | 4.6 | 4 | 2260 ± 323 | 1430 ± 285 | 485 ± 125 | 1400 ± 236 | 312 ± 115 | 120 ± 22.7 |  | 
4 | CC1(C)[C@@H]2CC[C@@]1(C)[C@@H](OC(=O)CCc1ccc(O)c(OC(F)(F)F)c1)C2 [Compound E] | 39.1 | 43.5 ± 8.4 | 2.73 ± 0.405 | 13.5 ± 1.183 | 46.2 | 17.7 ± 5.46 | 573 ± 43.0 | 19.8 ± 3.61 | 46 | 64.3 ± 8.1 | 3.4 | 3.5 | 3.7 | 3020 ± 527 | 959 ± 337 | 314 ± 56.6 | 887 ± 222 | 274 ± 102 | 84.6 ± 42.3 |  | 
5 | COc1cc(/C=C/C(=O)O[C@H]2C[C@H]3CC[C@]2(C)C3(C)C)ccc1O [D-bornyl ferulate, reference compound] | 36.4 | 45.4 ± 2.64 | 2.84 ± 0.323 | 13.8 ± 0.574 | 46.5 | 17.6 ± 4.59 | 658 ± 23.6 | 21.7 ± 4.35 | 40.9 | 64.8 ± 5.8 | 0.52 | 5 | 5.8 | 1490 ± 219 | 701 ± 136 | 276 ± 81.3 | 2890 ± 671 | 138 ± 55 | 47.1 ± 21.6 | 1.94 ± 0.19 | Infarction area [8]: 21.68 ± 2.80 %
6 | CC1(C)[C@@H]2CC[C@@]1(C)[C@@H](OC(=O)[C@H](O)Cc1ccc(O)c(O)c1)C2 [D-tanshinol borneol ester, reference compound] | 33.8 | 47.3 ± 4.53 | 2.76 ± 0.134 | 14.1 ± 0.658 | 43.8 | 18.5 ± 4.36 | 687 ± 35.4 | 25.6 ± 4.65 | 30.2 | 67.1 ± 8.8 | 0.47 | 2.6 | 3.4 | 1040 ± 168 | 644 ± 99.7 | 177 ± 35.2 | 2210 ± 546 | 244 ± 62.4 | 52.8 ± 34.1 | 1.98 ± 0.17 | Infarction area [8]: 22.76 ± 2.42 %
